{"source": "paper PMC3850062", "about": "(Virology, 2013)", "target": "T1, gp16 (eGFP-gp16), phi29 DNA packaging motor ATPase (Bacillus phage phi29, UniProt P11014)", "T1 sequence (P11014 1-332)": "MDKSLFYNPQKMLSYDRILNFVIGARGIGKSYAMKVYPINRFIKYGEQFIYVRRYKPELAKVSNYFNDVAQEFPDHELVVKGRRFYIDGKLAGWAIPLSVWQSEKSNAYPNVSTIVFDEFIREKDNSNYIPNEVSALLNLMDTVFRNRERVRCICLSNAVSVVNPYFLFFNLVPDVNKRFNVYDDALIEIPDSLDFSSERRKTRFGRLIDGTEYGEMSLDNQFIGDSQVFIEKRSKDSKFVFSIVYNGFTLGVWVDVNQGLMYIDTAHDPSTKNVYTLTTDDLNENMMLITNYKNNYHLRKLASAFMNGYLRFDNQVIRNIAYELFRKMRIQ", "conditions": "without and with saturating dsDNA", "data": [{"smiles": "Nc1ncnc2c1ncn2[C@@H]1O[C@H](COP(=O)(O)OP(=O)(O)OP(=O)(O)O)[C@@H](O)[C@H]1O", "note": "[ATP]", "values": [{"measurement": "fluorescence ATPase assay", "result": "each subunit of gp16 is able to hydrolyze ATP independently"}]}]}
